The record followed here is patent US20240175039A1, “ENGINEERING PROBIOTIC FOR DEGRADING URIC ACID, AND CONSTRUCTION METHOD THEREFOR AND USE THEREOF” (SHANDONG UNIVERSITY, priority 2022, published 2024).

Data set [1] deals with T1, Bacillus subtilis PucL^MM (PucL variant PucL^M, Asp-214 to Val and Gln-438 to Arg (D44V and Q268R in PucL^T), SEQ ID NO: 1, co-expressed with PucM, SEQ ID NO: 2 (Bacillus subtilis, UniProt O32141, D214V/Q438R)).
T1 sequence (O32141 1-494 D214V/Q438R): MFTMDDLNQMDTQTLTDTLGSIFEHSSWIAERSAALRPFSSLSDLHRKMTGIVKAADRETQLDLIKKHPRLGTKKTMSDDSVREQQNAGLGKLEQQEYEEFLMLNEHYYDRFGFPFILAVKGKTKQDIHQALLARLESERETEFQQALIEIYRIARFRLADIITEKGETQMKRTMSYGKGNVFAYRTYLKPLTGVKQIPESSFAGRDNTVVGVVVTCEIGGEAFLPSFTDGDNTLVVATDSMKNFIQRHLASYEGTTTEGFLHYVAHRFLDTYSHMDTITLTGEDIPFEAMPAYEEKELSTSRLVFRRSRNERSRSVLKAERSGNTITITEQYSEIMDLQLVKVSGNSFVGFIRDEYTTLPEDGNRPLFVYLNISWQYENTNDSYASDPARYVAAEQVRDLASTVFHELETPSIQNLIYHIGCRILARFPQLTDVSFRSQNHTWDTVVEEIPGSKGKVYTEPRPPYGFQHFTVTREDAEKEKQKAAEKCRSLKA
T1 sequence (O32142 1-114 partner): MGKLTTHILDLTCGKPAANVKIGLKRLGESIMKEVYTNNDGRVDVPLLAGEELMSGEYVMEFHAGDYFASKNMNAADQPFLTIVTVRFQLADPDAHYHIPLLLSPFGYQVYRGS
Kind of data set: UA degradation kinetics (Km, Vmax), cell extract of EcN::pMCS2-Ptrc-pucL^MM. Type of data set: biochemical. The conditions noted are these: cell extracts. From the text: (§1) The urate oxidase gene is specifically PucL^M and PucM, whose nucleotide sequences are shown as SEQ ID NO: 1 and SEQ ID NO: 2, respectively; they act together, and in the present invention, they are named PucL^MM.
(§2) The pucL (Gene ID: 936669) and pucM (Gene ID: 937977) genes from Bacillus subtilis were codon-optimized and synthesized by Beijing Genomics Institute (BGI, Beijing). Asp-214 and Gln-438 of PucL were mutated to Val and Arg, respectively. The mutated pucL was named as pucL^M, and pucL^M was codon-optimized and synthesized by Beijing Genomics Institute (BGI, Beijing). The vhb gene (Protein ID: WP_019959060.1) from Vitreoscilla sp. C1 was codon-optimized and synthesized by Beijing Genomics Institute (BGI, Beijing). The ygfU (Gene ID: 949017) and the katG (Gene ID: 948431) genes were PCR amplified from E. coli MG1655 genomic DNA.
(§3) (1) UA was measured in a buffer solution using a spectrophotometer by directly measuring the absorbance at 293 nm. […] Subsequently, appropriate dilutions were performed for measurement, and UA concentration was determined.
(§4) The activity of PucL^T can be enhanced by the D44V and Q268R mutations. […] Determined by using cell extracts, the Vmax of PucL^MM increased by approximately 1.8 times compared to PucLM. […]

Data set [2] deals with Bacillus subtilis PucLM (complete PucL co-expressed with PucM, wild type; PucM SEQ ID NO: 2). Kind of data set: UA degradation kinetics (Km, Vmax), cell extract of EcN::pMCS2-Ptrc-pucLM. The data set is classed as biochemical.
Text: as §2
(§5) (1) UA was measured in a buffer solution using a spectrophotometer by directly measuring the absorbance at 293 nm. Firstly, UA standard solutions of 0, 10 μM, 15 μM, 20 μM, 30 μM, 40 μM, 50 μM, 60 μM, and 70 μM were prepared to plot an UA concentration standard curve, obtaining a curve R2 of 0.9997. Subsequently, appropriate dilutions were performed for measurement, and UA concentration was determined.
The activity of PucL^T can be enhanced by the D44V and Q268R mutations. We directly mutated two sites in the complete PucL (PucLM) and co-expressed them with PucM in EcN (EcN::pMCS2-Ptrc-pucL^MM). Determined by using cell extracts, the Vmax of PucL^MM increased by approximately 1.8 times compared to PucLM. […] Due to the increase in Km, the UA degradation ability of the whole cell of EcN::pMCS2-Ptrc-pucL^MM was weakened when the concentration of UA was low (FIG. 2C).

Substrate in data set [3]: O=c1[nH]c(=O)c2[nH]c(=O)[nH]c2[nH]1
Kind of data set: UA degradation kinetics (Km, Vmax), cell extract of EcN::pMCS2-Ptrc-pucL^T. Type of data set: biochemical, Bacillus subtilis. The note with it: other: cell extract, recombinant EcN::pMCS2-Ptrc-pucL^T.
Text: as §2, §5
The UriC domain of PucL (PucL^T) catalyzes step 1 in the UA degradation (FIG. 1), and steps 2 and 3 can occur spontaneously. […]
as §4

Substrate in data set [4]: O=c1[nH]c(=O)c2[nH]c(=O)[nH]c2[nH]1
Kind of data set: UA degradation kinetics (Km, Vmax), cell extract of EcN::pMCS2-Ptrc-pucL^MM. Type of data set: biochemical, Bacillus subtilis. The note with it: other: cell extract, recombinant EcN::pMCS2-Ptrc-pucL^MM.
Text: as §1, §2, §3, §4

The mark [5] stands for this setting: cell extract, recombinant EcN::pMCS2-Ptrc-pucLM.

Broadly, the Km is the concentration of substrate that gives half-maximal velocity. The Vmax is the top rate of the reaction or transport when substrate is in excess. Take `O=c1[nH]c(=O)c2[nH]c(=O)[nH]c2[nH]1` [UA, uric acid]: in data set [1], the “Km increase of PucL^MM compared to PucLM” value is “approximately 2.0 times” and the “Vmax increase of PucL^MM compared to PucLM” value is “approximately 1.8 times”. In data set [2] (setting [5]), the Km came to 17.2 µM and the Vmax was determined as 13.88 µM/mg/min. Besides, in data set [2] (cell extracts), the “Km of PucLM compared with PucL^T” value is “significantly reduced” and the “Vmax of PucLM compared with PucL^T” value was “similar”.

B1: Bacillus subtilis PucL^T (UriC domain of PucL, urate oxidase) (Bacillus subtilis subsp. subtilis str. 168) (protein)
chain: MKRTMSYGKGNVFAYRTYLKPLTGVKQIPESSFAGRDNTVVGVDVTCEIGGEAFLPSFTDGDNTLVVATDSMKNFIQRHLASYEGTTTEGFLHYVAHRFLDTYSHMDTITLTGEDIPFEAMPAYEEKELSTSRLVFRRSRNERSRSVLKAERSGNTITITEQYSEIMDLQLVKVSGNSFVGFIRDEYTTLPEDGNRPLFVYLNISWQYENTNDSYASDPARYVAAEQVRDLASTVFHELETPSIQNLIYHIGCRILARFPQLTDVSFQSQNHTWDTVVEEIPGSKGKVYTEPRPPYGFQHFTVTREDAEKEKQKAAEKCRSLKA
As to B1, in data set [3], the Km was found to be 61.03 µM and the Vmax was determined as 12.3 µM/min/mg.

B2: Bacillus subtilis PucL^MM (PucL variant PucL^M, Asp-214 to Val and Gln-438 to Arg (D44V and Q268R in PucL^T), SEQ ID NO: 1, co-expressed with PucM, SEQ ID NO: … (protein)
chain: MFTMDDLNQMDTQTLTDTLGSIFEHSSWIAERSAALRPFSSLSDLHRKMTGIVKAADRETQLDLIKKHPRLGTKKTMSDDSVREQQNAGLGKLEQQEYEEFLMLNEHYYDRFGFPFILAVKGKTKQDIHQALLARLESERETEFQQALIEIYRIARFRLADIITEKGETQMKRTMSYGKGNVFAYRTYLKPLTGVKQIPESSFAGRDNTVVGVVVTCEIGGEAFLPSFTDGDNTLVVATDSMKNFIQRHLASYEGTTTEGFLHYVAHRFLDTYSHMDTITLTGEDIPFEAMPAYEEKELSTSRLVFRRSRNERSRSVLKAERSGNTITITEQYSEIMDLQLVKVSGNSFVGFIRDEYTTLPEDGNRPLFVYLNISWQYENTNDSYASDPARYVAAEQVRDLASTVFHELETPSIQNLIYHIGCRILARFPQLTDVSFRSQNHTWDTVVEEIPGSKGKVYTEPRPPYGFQHFTVTREDAEKEKQKAAEKCRSLKA
As to B2, in data set [4], the Km worked out at 52.54 µM and the Vmax worked out at 38.6 µM/min/mg.
